Results taken from paper PMC4815073, “Targeting of tubulin polymerization and induction of mitotic blockage by Methyl 2-(5-fluoro-2-hydroxyphenyl)-1H-benzo[d]imidazole-5-carboxylate (MBIC) in human cervical cancer HeLa cell” (Journal of Experimental & Clinical Cancer Research : CR, 2016).

Legend:
[1] = tested on: human cancer cell lines (HCT-116, A549, HepG-2, HeLa); experiment: MTT cytotoxicity assay, human cancer cell lines taken together; assay type: cell-based
Excerpt: (§1) The human cervical cancer cell-line, HeLa (CCL-2.2; ATCC, Manassas, VA), HCT-116 (CCL-247; ATCC, Manassas, VA), A549 (CCL-185; ATCC, Manassas, VA), HepG-2 (HB-8065; ATCC, Manassas, VA) and WRL-68 (CL-48; ATCC, Manassas, VA), were obtained from American Type Culture Collection (ATCC). HeLa, A549, HepG2 and WRL68 cells were maintained in Dulbecco’s Modified Eagle Medium (DMEM, Life Technologies, Inc, Rockville, MD). HCT-116 was obtained in McCoy’s 5a Medium Modified (Life Technologies, Inc, Rockville, MD) supplemented with 10 % fetal bovine serum and 1 % penicillin/streptomycin. Cells were incubated at 37 °C in a humidified cell culture 5 % CO2 incubator. Cells were passaged until reaching 70-80-% confluency for experimental purposes.
Cytotoxicity of MBIC was estimated by MTT assay. Briefly, 1 × 10^4 cells/well were seeded in a 96-well plate and incubated at 37 °C in 5 % CO2. After 24 h, cells were treated with different concentrations (0.02, 0.04, 0.1, 0.2, 0.4, 0.8, 1.5, 3, 6, 12, 25, 50 μM) of MBIC. 0.01 % DMSO was used as vehicle control. Cells were incubated for 24 and 48 h at 37 °C. […] The colorimetric assay was quantified at 570 nm wavelength using Chameleon V microplate reader (Hidex, Turku, Finland). The anti-proliferation activity of MBIC was expressed as an IC50 value. The percentage of cell viability was calculated as described previously.

[2] = tested on: WRL-68 cells; experiment: MTT cytotoxicity assay, WRL-68 normal liver cells; assay type: cell-based, human; conditions: Homo sapiens
Excerpt: as §1
Cytotoxicity of MBIC was estimated by MTT assay. Briefly, 1 × 10^4 cells/well were seeded in a 96-well plate and incubated at 37 °C in 5 % CO2. After 24 h, cells were treated with different concentrations (0.02, 0.04, 0.1, 0.2, 0.4, 0.8, 1.5, 3, 6, 12, 25, 50 μM) of MBIC. 0.01 % DMSO was used as vehicle control. Cells were incubated for 24 and 48 h at 37 °C. Subsequently, 50 μl/well of 3-(4,5-dimethylthiazol-2-yl)-2,5-diphenyltetrazolium bromide (MTT, 2 mg/ml) was added and incubated for 2 h. After the incubation, the media was discarded and 100 μl DMSO was replaced into each well to dissolve the formazan crystal. The colorimetric assay was quantified at 570 nm wavelength using Chameleon V microplate reader (Hidex, Turku, Finland). The anti-proliferation activity of MBIC was expressed as an IC50 value. The percentage of cell viability was calculated as described previously.

[3] = tested on: HeLa cells; experiment: Multiparameter cytotoxicity assay (Cellomics HCS); assay type: cell-based, human; conditions: 24 h
Method: The critical apoptotic events in cervical cancer including cell permeability, mitochondrial membrane potential (MMP), cytochrome c release and total nuclear intensity after treatment with MBIC were determined using the Cellomics Multiparameter Cytotoxicity 3 Kit. Briefly, 1 × 10 ^4 cells/well were seeded in a 96-well plate and incubated for 24 h prior to treatment with MBIC at various concentrations. At 24 h post treatment, cells were stained with cell permeability and MMP dye and further incubated for 1 h. Stained cells were fixed and permeabilized with 4 % formaldehyde and 0.1 % Triton X-100 in PBS, respectively. Cells were washed twice with 1X PBS prior to blocking with 3 % bovine serum albumin.
Cells were rinsed twice with Wash Buffer I (1X PBS) and incubated with 50 μl/well of Cytochrome c primary antibody. After 60 min, the plate was washed with 1X Wash Buffer and subsequently, 50 μl of goat anti-mouse secondary antibodies conjugated with DyLight 649 were added into each well. Cells were rinsed twice with Wash Buffer I (1X PBS). Hoechst 33342 was added into the staining solution to stain the nucleus. Stained cells in the 96-well plates were analyzed using ArrayScan High Content Screening (HCS) system (Thermo Scientific, USA).

[4] = tested on: HeLa cells; experiment: Drug combination assay (MTT, Chou-Talalay, CampuSyn); assay type: cell-based; conditions: Homo sapiens, 24 h, drug alone, read-out: (Dm)IC50 Drug 2 (MBIC alone)
Method: In order to discover the synergistic effects of MBIC with conventional drugs briefly, cells were seeded in 1 × 10^4 cells/well and were incubated at 37 °C overnight. […] Also, the MBIC, combined with each of the selected conventional drugs in a 1:1 ratio, were diluted in concentration from 50 μM to 0.1 μM. Cell viability assay (MTT assay) was performed 24 h post-treatment and absorbance were measured in a microplate reader to find out the IC50 for each conventional drug alone and in combination with MBIC on HeLa cells. For this analysis, we used the commercial software package CampuSyn (Biosoft, Cambridge, United Kingdom; Ref.9). […] Furthermore, the software produced an automated isobologram and fraction affected-combination index (Fa-CI) plot.

[5] = tested on: HeLa cells; experiment: Cell cycle analysis (PI, flow cytometry); assay type: cell-based, human; conditions: 24 h
Method: Cell cycle analysis was performed using propidium iodide (PI). Briefly, cells were seeded in a 25 cm^2 flask, then 60 % confluent cells were treated with MBIC for 24 and 48 h. Following incubation, the cells were harvested and spun down for 5 min at 2000 rpm. The supernatant was removed and cells were then fixed in 1 ml of ice-cold 70 % ethanol overnight at -80 °C. Fixed cells were washed with 1 ml 1X PBS and stained in 500 μl of PI containing 5 μg/ml DNase-free RNase for 30 min at room temperature in total darkness. DNA content of the cell was analyzed by flow cytometry. The percentage of G0-G1, S and G2-M cells were then calculated using Fluorescence-activated cell sorting (FACS) software (BD Biosciences).

[6] = tested on: HeLa cells expressing EGFP-α-tubulin, EGFP-CENP-A and histone H2B-mCherry; experiment: Live-cell imaging of mitotic spindle; assay type: cell-based, human; conditions: MBIC 10 μM, nocodazole 2 μM; imaged at 15 min intervals
Method: HeLa cells expressing EGFP-α-tubulin, EGFP-CENP-A and histone H2B-mCherry were grown in glass chambers (Thermo Scientific, USA). Thirty minutes before imaging, the medium was changed to pre-warmed Leibovitz’s L-15 medium (Life Technologies) supplemented with 20 % fetal bovine serum and 20 mM HEPES, pH 7.0. Recordings were made in a temperature-controlled incubator at 37 °C. Images were collected with an Olympus IX-71 inverted microscope (Olympus) controlled by DeltaVision softWoRx (Applied Precision) using a 20x 0.75 NA UPlan SApochromat objective lens (Olympus). Z-series of six sections in 3 μm increments were captured every 15 min. Image stacks were projected.

Work on `COC(=O)c1ccc2[nH]c(-c3cc(F)ccc3O)nc2c1` [MBIC, Methyl 2-(5-fluoro-2-hydroxyphenyl)-1H-benzo[d]imidazole-5-carboxylate] yielded an IC50 [1] of less than 5 µM, an IC50 ([2]; WRL68, 24 hours) of 10.1 ± 1.2 µM and an IC50 ([2]; WRL68, 48 hours) of 7.16 ± 0.9 µM. For the same molecule, the cytochrome c release ([3]; 0.2 and 0.4 μM) was “considerable elevation”, the “cell number (loss of cells)” value ([3]; 0.2 and 0.42 μM) was “dose-dependent loss of cells” and the membrane permeability ([3]; 0.2 and 0.42 μM) was “increase of membrane permeability”. The “mitochondrial membrane potential (MMP, Δψm)” value ([3]; 0.2 and 0.42 μM) was “exhaustion of MMP”, the IC50 [4] was 0.21 ± 0.02 µM and the G2-M cell population ([5]; 0.21 μM) was 26.7 ± 6.3%. For the same molecule, the G2-M cell population ([5]; 1 μM) was 42.8 ± 6.4% and the “mitotic spindle formation in live-cell imaging” value [6] was “did not form the spindle”.
